Consider 30 compounds from patent US10738024B2, “Compounds for treatment of angiogenesis-mediated diseases” (Indiana University Research and Technology Corporation, priority 2013, dated 2020).

The test system of assay [1] is HUVECs. The assay can be described thus: ALAMARBLUE proliferation assay in HUVECs. The note with it: Homo sapiens, HUVEC, 48 h, 50% growth inhibitory concentration, alamarBlue. Format: cell-based, human. As for the experimental part: (§1) Particularly, in a 96-well clear bottom black plate, cells (2,500 cells per well) were seeded in a total volume of 100 μL EGM-2. After 24 hours of incubation of the plate at 37° C. and 5% CO2, a DMSO solution of synthetic cremastranone (1) or SH-11052 (2) was added in the concentration range of 0.5 nM to 500 μM (final DMSO concentration=1%). The plate was then further incubated for 48 hours before adding 11.1 μL of ALAMARBLUE® reagent to each well. Four hours after the addition of ALAMARBLUE®, fluorescence readings with excitation and emission wavelengths of 560 nm and 590 nm, respectively, were taken and the data were analyzed in GraphPad Prism software (v. 6.0). Dose response curves were generated and the GI50 values were calculated using the following equation: Y=100/(1+10^(X−Log GI50)).
(§2) For proliferation assays, cells (2500 per well) were seeded in a 96-well clear bottom black polystyrene plate in a total volume of 100 μL. HUVECs and HRECs were grown in EGM-2 and CSC+ media respectively, while 92-1 and Y79 cells were maintained in RPMI+10% FBS, penicillin/streptomycin and RB medium (IMDM+10% FBS+penicillin/streptomycin+10 μg/mL insulin+55 μM β-mercaptoethanol) respectively. After 24 hours of incubation of the plate at 37° C., the compounds were dissolved in DMSO and added in the concentration range of 500 μM to 0.5 nM. The plate was then incubated at 37° C. and 5% CO2 conditions for 48 hours before adding 11.1 μL of alamar blue reagent for each well. Four hours after the addition of ALAMARBLUE® reagent, fluorescence readings with excitation and emission wavelengths of 560 nm and 590 nm respectively were taken and the data was analyzed in GraphPad Prism software. The dose response curves were generated and the GI50 values were calculated using the equation: Y=100/(1+10^(X−Log GI50)) (Table 1).

Assay [2] deals with Y-79 retinoblastoma cells. The assay can be described thus: ALAMARBLUE proliferation assay in Y-79 retinoblastoma cells. The note with it: 50% growth inhibitory concentration, 48 hours. The format is cell-based. On the procedure: as §2
For assay [3], the system named is 92-1 uveal melanoma cells. As to the kind of experiment: ALAMARBLUE proliferation assay in 92-1 uveal melanoma cells. The note with it: 50% growth inhibitory concentration, 48 hours, alamarBlue. The format is cell-based. On the procedure: as §2
The subject of assay [4] is HRECs. The assay can be described thus: ALAMARBLUE proliferation assay in HRECs. The format is cell-based, human. The note with it: Homo sapiens, HREC; 50% growth inhibitory concentration, 48 hours, alamarBlue; read-out: GI50 HREC. As for the experimental part: as §1, §2

Some results are limits rather than exact numbers.

As to `COc1ccc(/C=C2\COc3cc(OC)c(OC)c(OC)c3C2=O)cc1[N+](=O)[O-]` [Compound 11h], the 50% growth inhibitory concentration (GI50) in assay [1] was found to be 11 µM; in assay [2], 44 µM; in assay [3], 13 µM; in assay [4], 4 µM.

As for `COc1cc(/C=C2\COc3cc(OC)c(OC)c(OC)c3C2=O)ccc1O` [Compound 11e], the GI50 in assay [1] was 6 µM; in assay [2] it was 23 µM; in assay [3], 55 µM; in assay [4] it was 4 µM.

In the case of `COc1ccc(/C=C2\COc3cc(OC)c(OC)c(OC)c3C2=O)cc1OCC(=O)O` [Compound 11m], the GI50 in assay [1], in assay [2], in assay [3] and in assay [4] was greater than 500 µM each time.

As to `COc1cc(/C=C2\COc3cc(OC)c(OC)c(OC)c3C2=O)cc(OC)c1OC` [Compound 11u], the GI50 was 10.4 µM in assay [1], 9 µM in assay [2], greater than 250 µM in assay [3] and 16.6 µM in assay [4].

For the compound `COc1cc2c(c(OC)c1OC)C(=O)/C(=C/c1ccc(O)c(O)c1)CO2` [Compound 11n], the GI50 in assay [1] is 4.1 µM; in assay [2], 13 µM; in assay [3], 13.7 µM; in assay [4] it was 6.4 µM.

In the case of `COc1ccc(CCC(=O)c2c(O)cc(OC)c(OC)c2OC)cc1OC` [Compound 4c], the GI50 in assay [1] was 74 µM; in assay [2] it was greater than 100 µM; in assay [3], greater than 100 µM; in assay [4], 123 µM.

For `COc1cc(/C=C2\COc3cc(OC)c(OC)c(OC)c3C2=O)ccc1OCc1ccccc1` [Compound 11d], the GI50 is 114 µM in assay [1], 39 µM in assay [2], 23 µM in assay [3] and 53 µM in assay [4].

In the case of `COc1ccc(/C=C2\COc3cc(OC)c(OC)c(OC)c3C2=O)cc1F` [Compound 11s], the GI50 turned out to be 7.6 µM in assay [1], 10 µM in assay [2], 7 µM in assay [3] and 3.2 µM in assay [4].

`COc1cccc(/C=C2\COc3cc(OC)c(OC)c(OC)c3C2=O)n1` [Compound 11f]: the concentration for 50% growth inhibition (GI50) turned out to be 16 µM in assay [1], 25 µM in assay [2], 25 µM in assay [3] and 17 µM in assay [4].

As for `COc1cc2c(c(OC)c1OC)C(=O)C(Cc1ccccc1)CO2` (centres unmarked) [Compound 6b, 3-benzyl-5,6,7-trimethoxychroman-4-one], the GI50 in assay [1], in assay [2], in assay [3] and in assay [4] was greater than 100 µM throughout.

For `COC(=O)c1cc(/C=C2\COc3cc(OC)c(OC)c(OC)c3C2=O)ccc1O` [Compound 11o], the GI50 came out at 2 µM in assay [1], 2.3 µM in assay [2], 8.2 µM in assay [3] and 4.7 µM in assay [4].

Take `COc1ccc(Cc2coc3cc(OC)c(OC)c(OC)c3c2=O)cc1O` [Compound 9a, 3-(3′-hydroxy-4′-methoxybenzyl)-5,6,7-trimethoxy-4H-chromen-4-one]: the 50% growth inhibitory concentration (GI50) in assay [1], in assay [2], in assay [3] and in assay [4] was greater than 100 µM in each case.

On to `COc1cc(OC)c2c(c1)OC/C(=C\c1ccc(OC)c(O)c1)C2=O` [Compound 15a], for which the GI50 in assay [1] was determined as 17.7 µM; in assay [2] it was 13.5 µM; in assay [3] it was 78.5 µM; in assay [4], 37 µM.

Regarding `COc1ccc(/C=C2\Cc3cc(OC)c(OC)c(OC)c3C2=O)cc1O` [Compound 13, (E)-2-(3-hydroxy-4-methoxybenzylidene)-5,6,7-trimethoxy-2,3-dihydro-1H-inden-1-one], the 50% growth inhibitory concentration (GI50) in assay [1] came to 19 µM; in assay [2], 49 µM; in assay [3], 80 µM; in assay [4], 30 µM.

In the case of `COc1ccc(/C=C2\CCOc3cc(OC)c(OC)c(OC)c3C2=O)cc1O` [Compound 12, (E)-4-(3-hydroxy-4-methoxybenzylidene)-6,7,8-trimethoxy-3,4-dihydrobenzo[b]oxepin-5(2H)-one], the GI50 in assay [1] worked out at 30 µM; in assay [2], 33 µM; in assay [3] it was 145 µM; in assay [4] it was 35 µM.

For the compound `COc1ccc(CC2COc3cc(OC)c(OC)c(OC)c3C2=O)cc1O` (centres unmarked) [Compound 6a, 3-(3′-hydroxy-4′-methoxybenzyl)-5,6,7-trimethoxychroman-4-one], the GI50 in assay [1], in assay [2], in assay [3] and in assay [4] was greater than 100 µM in each case.

For `COc1ccc(CC2COc3cc(O)c(O)c(O)c3C2=O)cc1O` (centres unmarked) [Compound 8d, 5,6,7-trihydroxy-3-(3-hydroxy-4-methoxybenzyl)chroman-4-one], the GI50 in assay [1] is 124 µM; in assay [2] it was greater than 500 µM; in assay [3] it was greater than 500 µM; in assay [4], 135 µM.

Turning to `COc1cc2c(c(OC)c1OC)C(=O)/C(=C/c1ccc(O)c(F)c1)CO2` [Compound 11p], the GI50 was found to be 9 µM in assay [1], 22 µM in assay [2], 30 µM in assay [3] and 19 µM in assay [4].

Turning to `COc1ccc(CC2COc3cc(OC)c(O)c(O)c3C2=O)cc1OC(=O)c1ccccc1` (centres unmarked) [Compound 8c], the GI50 was greater than 100 µM in assay [1], greater than 50 µM in assay [2], 51 µM in assay [3] and greater than 100 µM in assay [4].

For `COc1cc2c(c(OC)c1OC)C(=O)/C(=C/c1ccc(OCc3ccccc3)cc1)CO2` [Compound 11i], the GI50 in assay [1] was 284 µM; in assay [2], 465 µM; in assay [3] it was 152 µM; in assay [4] it was greater than 500 µM.

In the case of `COc1cc2c(c(OC)c1OC)C(=O)/C(=C/c1ccc(OCc3ccccc3)c(OCc3ccccc3)c1)CO2` [Compound 11t], the GI50 was 64 µM in assay [1], 109 µM in assay [2], greater than 250 µM in assay [3] and 160 µM in assay [4].

As to `COc1ccc(/C=C2\COc3cc(OC)c(OC)c(OC)c3C2=O)cc1OCc1ccccc1` [Compound 11b, (E)-3-(3′-benzyloxy-4′-methoxybenzylidene)-5,6,7-trimethoxychroman-4-one], the GI50 in assay [1] amounted to 4 µM; in assay [2], 15 µM; in assay [4], 6 µM.

On to `COc1cc2c(c(OC)c1OC)C(=O)CCO2` [Compound 10a, 5,6,7-trimethoxychromanone], for which the GI50 is greater than 100 µM in assay [1], greater than 500 µM in assay [2], greater than 500 µM in assay [3] and greater than 100 µM in assay [4].

With `COc1ccc(CN2CCc3cc(OC)c(OC)c(OC)c3C2=O)cc1OCc1ccccc1` [Compound 14, 2-(3-(Benzyloxy)-4-methoxybenzyl)-6,7,8-trimethoxy-3,4-dihydroisoquinolin-1(2H)-one], the GI50 in assay [1] was 71 µM; in assay [2], greater than 500 µM; in assay [3] it was 6 µM; in assay [4], 103 µM.

In the case of `COc1cc2c(c(OC)c1OC)C(=O)C(Cc1ccc(O)c(O)c1)CO2` (centres unmarked) [Compound 6e], the GI50 is 77 µM in assay [1], 98 µM in assay [2], greater than 250 µM in assay [3] and greater than 250 µM in assay [4].

In the case of `C=CCOc1cc(/C=C2\COc3cc(OC)c(OC)c(OC)c3C2=O)ccc1OC` [Compound 11c, (E)-3-(3′-allyloxy-4′-methoxybenzylidene)-5,6,7-trimethoxychroman-4-one], the GI50 came out at 11 µM in assay [1], 3 µM in assay [2], 3.2 µM in assay [3] and 4 µM in assay [4].

With `COc1ccc(CC2(CO)COc3cc(OC)c(OC)c(OC)c3C2=O)cc1O` (centres unmarked) [Compound 5, 3-(3′-hydroxy-4′-methoxybenzyl)-3-(hydroxymethyl)-5,6,7-trimethoxychroman-4-one], the GI50 in assay [1], in assay [2], in assay [3] and in assay [4] was greater than 100 µM each time.

In the case of `COc1ccc(CCC(=O)c2c(O)cc(OC)c(OC)c2OC)cc1O` [Compound 4a, 1-(6-hydroxy-2,3,4-trimethoxyphenyl)-3-(3′-hydroxy-4′-methoxyphenyl) propan-1-one], the concentration for 50% growth inhibition (GI50) in assay [1] is 102 µM; in assay [2] it was 68 µM; in assay [3], greater than 100 µM; in assay [4], 68 µM.

Consider `COc1ccc(/C=C2\COc3cc(OC)c(OC)c(OC)c3C2=O)c(OC)c1OC` [Compound 11w], for which the GI50 in assay [1] was 45 µM; in assay [2], 154 µM; in assay [3], greater than 250 µM; in assay [4], 91 µM.

Turning to `COC(=O)c1cc(CC2COc3cc(OC)c(OC)c(OC)c3C2=O)ccc1OC` (centres unmarked) [Compound 6d], the GI50 in assay [1] was 27 µM; in assay [2] it was 40 µM; in assay [3] it was greater than 250 µM; in assay [4] it was 13 µM.
